Test results taken from patent US11066412B2, “Substituted pyrrolo[2,1-a]phthalazines and benzo[g]pyrrolo[2,1-a]phthalazines for the treatment of cancer” (Academia Sinica, priority 2017, dated 2021).

Tests used:
VEGFR-2 = target: T1, VEGFR-2 (Homo sapiens, UniProt P35968); assay: VEGFR-2 activation, western blotting in EA.hy926 cells; assay type: cell-based
T1 construct: endogenous in cells; host or cells: EA.hy926 endothelial cells
Protocol: In the present example, BO-2590 and BO-2577 were subject to the test of their activity in suppressing VEGFR-2 by western blotting analysis. Briefly, the endothelial EA.hy926 cells were incubated with BO-2590 or BO-2577 at various concentrations for 12 hr. The primary antibodies, anti-VEGFR-2 and anti-p-VEGFR-2, were used to blot the proteins of total VEGFR-2 and p-VEGFR-2, respectively. Results are illustrated in FIG. 3.

EA.hy926 cells = assay: Tube-Formation Assay; assay type: cell-based; details: 24 hr pre-treatment, 48-hr incubation on matrigel; FIG. 4
Protocol: Angiogenesis is the process of generating new blood vessels derived as extensions from the existing vasculature. Performance of vascular behavior or monitoring tube formation can determine whether the compound is capable of interrupting angiogenesis. In this example, whether the compound of formula (I) interrupted angiogenesis was investigated using Tube-Formation Assay.
Briefly, EA.hy926 cells were treated with various concentrations of BO-2590 for 24 hr. After that, cells (5×10^5 cells/well) were suspended in 100 μl medium containing 1% FCS and subsequently seeded onto 96-well plate pre-coated with matrigel 1 h at 37° C. After a 48-hr incubation, tube-formation ability was examined under a phase microscope.

H460 lung cancer cells = assay: cell cycle distribution by flow cytometry; assay type: cell-based, human
Protocol: We further investigated the effects of BO-2590 on cell cycle progression in H460 lung cancer cells at the concentrations of 0, 0.125, 0.25, 0.5, 1 and 2 μM for 24, 48 and 72 hr. The cell cycle distribution was analyzed by flow cytometry. […] By increasing the concentration of BO-2590, significant arrest at the G2 phase was first observed, which was followed by the arrest of the S phase progression, and finally the G1 arrest appeared at 24 hr. However, following the incubation for 48 or 72 hr, while the cell cycle slowly processed, a significant amount of the sub-G1 cells started to appear (FIG. 6). The sub-G1 cells also represented apoptotic cells.

[1] = solubility / hydrophobicity (statement); assay type: physicochemical
H1417 = assay: in vitro cytotoxicity to SCLC cells; assay type: cell-based, human; details: Table 3
How it was run: (§1)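 SCLC lines exposed to compounds for 72 h, then viability measured by PrestoBlue (1–2 h at 37° C, absorbance 570/600 nm).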

H146 = assay: in vitro cytotoxicity to SCLC cells; assay type: cell-based, human; details: Table 3
How it was run: as §1

H211 = assay: in vitro cytotoxicity to SCLC cells; assay type: cell-based, human; details: Table 3
How it was run: as §1

H82 = assay: in vitro cytotoxicity to SCLC cells; assay type: cell-based, human; details: Table 3
How it was run: as §1

H526 cells = assay: single cell electrophoresis (comet) assay; assay type: cell-based; details: FIG. 2
Text: The data is the average of 3 independent experiments.
To this purpose, cells were encapsulating in a low-melting-point agarose suspension on a microscope slide, then were lysed in neutral or alkaline (pH>13) condition, and electrophoresis of the suspended lysed cells. The term “comet” refers to the pattern of DNA migration through the electrophoresis gel, which often resembles a comet, and the intensity of the comet tail relative to the head reflects the number of DNA breaks.

H526 cell lines = assay: Annexin V staining assay; assay type: cell-based; details: 0.01-0.08 μM, 72-h treatment; FIG. 8
Protocol: In this example, the effect of BO-2768 was assessed in accordance with procedures of Example 4.7 except apoptotic cell death was determined in H526 cell lines. Briefly, H526 cells were treated with BO-2768 at the concentrations of 0.01, 0.02, 0.04 and 0.08 μM or with cisplatin at the concentrations of 2, 4, 8 and 16 μM for 24, 48 or 72 hrs and then stained with Annexin V-FITC and propidium iodide. The stained cells were analyzed by flow cytometry.

H211 cells = assay: combination with cisplatin, proliferation by PrestoBlue assay; assay type: cell-based; details: co-administration of BO-2768 and cisplatin, ratio 1:2, 1:4 and 1:8; FIG. 9
Protocol: In this example, whether synergistic effect on the suppression of cell proliferation exists between BO-2768 and cisplatin was investigated. To this purpose, H211 cells were treated with BO-2768 or cisplatin, alone or in combination, and proliferation rate of H211 cells was analyzed by PrestoBlue assay. Results are depicted in FIG. 9.

SCLC H211 xenografts = assay: tumor growth in xenograft-bearing nude mice, combination with cisplatin; assay type: in vivo; details: co-administration of BO-2768 (20 mg/kg, 5 days + 1 day rest, two cycles) and cisplatin (2 or 4 mg/kg every 4 days ×3); FIG. 14, panel A
Protocol: Athymic nude mice bearing the nu/nu gene were obtained from the National Laboratory Animal Center (Taipei, Taiwan). Male nude mice (6 weeks or older weighing 20-24 g or more) were used for all human tumor xenografts. The tested compounds were intravenously administered through tail vein. Tumor volume was determined by measuring the length x width x height (or width) with calipers. The vehicle used for the tested compounds was normal saline (0.9% NaCl isotonic solution). For tumor-bearing nude mice during the course of the experiment, the % body weight changes refer to: (the total weight on reading day/the total weight on day treatment started)×100.
In this example, the synergistic effect of BO-2768 and cisplatin on the suppression of tumor size and the body weight changes of the test subjects were investigated. To this purpose, an aliquot of H211 cells (5×10^6, 50 μl ) were implanted into nude mice subcutaneously. Then, the test animals were treated with BO-2768 or cisplatin, alone or in combination. BI-2768 (dissolved in 20% Kolliphor® HS 15, 10% Tween 80, 10% PEG400, […], and 40% distilled water) was administered at the dose of 20 mg/kg in […] for 5 consecutive days, then rest for one day; and the cycle was repeated once (i.e., a total of two cycles). Cisplatin was given at the dose of 2 or 4 mg/kg once every 4 days, for 3 times. Results are depicted in FIG. 14.

T1 sequence (P35968 20-1356): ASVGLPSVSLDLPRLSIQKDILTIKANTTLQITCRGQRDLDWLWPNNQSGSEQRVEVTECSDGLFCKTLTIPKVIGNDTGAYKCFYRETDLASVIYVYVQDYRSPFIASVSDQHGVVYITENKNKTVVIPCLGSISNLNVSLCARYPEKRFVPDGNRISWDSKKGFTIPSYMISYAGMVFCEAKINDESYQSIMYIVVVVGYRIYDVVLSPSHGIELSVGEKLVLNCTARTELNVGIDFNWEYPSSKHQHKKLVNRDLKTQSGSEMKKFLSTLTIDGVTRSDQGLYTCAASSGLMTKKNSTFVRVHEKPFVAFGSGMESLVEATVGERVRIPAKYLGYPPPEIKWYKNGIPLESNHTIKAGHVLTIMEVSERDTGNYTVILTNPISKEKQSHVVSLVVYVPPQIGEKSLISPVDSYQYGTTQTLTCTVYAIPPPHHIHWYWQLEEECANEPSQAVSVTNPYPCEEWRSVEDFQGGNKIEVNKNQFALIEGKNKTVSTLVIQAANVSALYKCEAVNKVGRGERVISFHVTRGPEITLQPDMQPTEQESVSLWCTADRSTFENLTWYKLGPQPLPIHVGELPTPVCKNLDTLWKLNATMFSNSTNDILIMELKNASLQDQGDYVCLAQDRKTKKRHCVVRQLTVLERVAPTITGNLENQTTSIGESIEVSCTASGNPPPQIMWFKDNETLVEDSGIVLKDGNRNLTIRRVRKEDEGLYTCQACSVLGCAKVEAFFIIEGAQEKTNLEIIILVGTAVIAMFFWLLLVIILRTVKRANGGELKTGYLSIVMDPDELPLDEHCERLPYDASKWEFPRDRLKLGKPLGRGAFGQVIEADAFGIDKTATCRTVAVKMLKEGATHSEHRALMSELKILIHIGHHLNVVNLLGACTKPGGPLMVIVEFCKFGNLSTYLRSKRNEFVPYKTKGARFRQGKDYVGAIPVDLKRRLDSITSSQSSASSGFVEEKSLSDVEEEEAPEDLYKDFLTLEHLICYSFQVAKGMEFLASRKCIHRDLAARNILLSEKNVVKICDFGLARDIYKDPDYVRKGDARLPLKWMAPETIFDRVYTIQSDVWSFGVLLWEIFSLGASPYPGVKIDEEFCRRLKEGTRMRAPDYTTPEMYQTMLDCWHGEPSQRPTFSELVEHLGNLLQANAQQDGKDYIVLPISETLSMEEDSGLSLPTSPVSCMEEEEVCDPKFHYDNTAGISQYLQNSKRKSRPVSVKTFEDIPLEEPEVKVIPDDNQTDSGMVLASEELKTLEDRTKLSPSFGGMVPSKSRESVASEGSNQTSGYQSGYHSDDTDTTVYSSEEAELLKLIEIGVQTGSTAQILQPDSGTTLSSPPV

| dose effective on suppression of p-VEGFR-2, lower than that of Valatanib (VEGFR-2; relative to Valatanib) | solubility [1] | Structure (SMILES) | p-VEGFR-2 protein levels (VEGFR-2; EA.hy926 cells, 12 hr, FIG. 3) | total protein levels of VEGFR-2 (VEGFR-2; EA.hy926 cells, 12 hr, FIG. 3) | tube formation (EA.hy926 cells) | cell cycle progression (H460 lung cancer cells; 0.125-2 μM, 24, 48 and 72 hr, FIG. 5) | sub-G1 (apoptotic) cells (H460 lung cancer cells; 48 or 72 hr, FIG. 6) | IC50 (H1417) | IC50 (H146) | IC50 (H211) | IC50 (H82) | DNA damage (comet tail) (H526 cells) | proportion of Annexin V+ cells (H526 cell lines) | numbers of proliferated H211 cells, combination effect (H211 cells) | tumor size, combination effect (SCLC H211 xenografts) |
| --- | --- | --- | --- | --- | --- | --- | --- | --- | --- | --- | --- | --- | --- | --- | --- |
| ~10 folds | poor | Cc1c(CO)c(CO)c2c3ccccc3c(N3CCC(N4CCCCC4)CC3)nn12 [BO-2590, (6-([1,4′-Bipiperidin]-1′-yl)-3-methylpyrrolo[2,1-α]phthalazine-1,2-diyl)dimethanol] | marked suppression in p-VEGFR-2 protein levels | did not significantly change the total protein levels of VEGFR-2 | markedly and dose-dependently abolished tube formation | dose-dependently interfered with cell cycle progression | dose-dependently induced the sub-G1 cells |  |  |  |  |  |  |  |  |
|  |  | Cc1c(CO)c(CO)c2c3cc4ccccc4cc3c(N(C)C)nn12 [BO-2768, (6-(Dimethylamino)-3-methylbenzo[g]pyrrolo[2,1-α]phthalazine-1,2-diyl)dimethanol] |  |  |  |  |  | 420 ± 190 nM | 1170 ± 290 nM | 170 ± 70 nM | 310 ± 140 nM | capable of inducing DNA breaks in a dose dependent manner | significantly increased the proportion of Annexin V^+ cells in a dose-dependent manner | synergistic reduction in the numbers of proliferated H211 cells | synergistic reduction in the tumor size |
